Measurements: patent US12655116B2, “Substituted isophthalic acid diamides” (Bayer Aktiengesellschaft, priority 2020, dated 2026)

Tests used:
CYPES [1] = assay: Pre-emergence herbicidal action against CYPES; assay type: in vivo; conditions: Cyperus esculentus, 504 h; for pest or weed control at 80 g/ha / pest or weed control at 20 g/ha: scored visually after 3 weeks, 100% = plants have died, 0% = like control plants
From the text: (§1) Seeds of monocotyledonous and dicotyledonous weed plants and crop plants are laid out in sandy loam soil in wood-fiber pots and covered with soil. The compounds of the invention, formulated in the form of wettable powders (WP) or as emulsion concentrates (EC), are then applied to the surface of the covering soil in the form of an aqueous suspension or emulsion at a water application rate equivalent to 600 to 800 l/ha, with addition of 0.2% wetting agent. After the treatment, the pots are placed in a greenhouse and kept under good growth conditions for the trial plants. The damage to the test plants is scored visually after a test period of 3 weeks by comparison with untreated controls (herbicidal activity in percent (%): 100% activity=the plants have died, 0% activity=like control plants). […] The tables below illustrate, in an illustrative manner, the post-emergence herbicidal action of the compounds of the invention, the herbicidal activity being stated in percent.

AVEFA = assay: Post-emergence herbicidal action against AVEFA; assay type: in vivo, Avena fatua; conditions: Avena fatua, 504 h, visual assessment about 3 weeks after treatment, 100% = plants have died, 0% = like control plants
Outline: (§2)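 Herbicidal effect was scored visually in percent after about 3 weeks in the greenhouse. Plants had been raised in sandy loam and treated post-emergence at the one-leaf stage with formulated compound at 600 to 800 l/ha water plus 0.2% wetting agent.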

PHBPU [2] = assay: Pre-emergence herbicidal action against PHBPU; assay type: in vivo, Pharbitis purpurea; conditions: Ipomoea purpurea, 504 h; for pest or weed control at 80 g/ha: dosage 80 g/ha; for pest or weed control at 320 g/ha: dosage 320 g/ha
Outline: (§3)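 Herbicidal effect was assessed 3 weeks after treatment by visual comparison with untreated controls, 100% denoting dead plants. Aqueous WP or EC preparations had been applied at 600 to 800 l/ha with 0.2% wetting agent to the soil covering freshly sown seeds.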

PHBPU [3] = assay: Post-emergence herbicidal action against PHBPU; assay type: in vivo, Pharbitis purpurea; conditions: Ipomoea purpurea, 504 h; for pest or weed control at 20 g/ha: dosage 20 g/ha; for pest or weed control at 80 g/ha: dosage 80 g/ha; for pest or weed control at 5 g/ha: dosage 5 g/ha
Outline: as §2

MATIN [4] = assay: Pre-emergence herbicidal action against MATIN; assay type: in vivo, Matricaria inodora; conditions: Tripleurospermum inodorum, 504 h; for pest or weed control at 20 g/ha: dosage 20 g/ha; for pest or weed control at 80 g/ha: dosage 80 g/ha; for pest or weed control at 320 g/ha: dosage 320 g/ha
Outline: as §3

STEME = assay: Post-emergence herbicidal action against STEME; assay type: in vivo, Stellaria media; conditions: Stellaria media, 504 h; for pest or weed control at 5 g/ha: dosage 5 g/ha
Outline: as §2

MATIN [5] = assay: Post-emergence herbicidal action against MATIN; assay type: in vivo, Matricaria inodora; conditions: Tripleurospermum inodorum, 504 h; for pest or weed control at 5 g/ha: dosage 5 g/ha; for pest or weed control at 20 g/ha: dosage 20 g/ha; for pest or weed control at 80 g/ha: dosage 80 g/ha
Outline: as §2

CYPES [6] = assay: Post-emergence herbicidal action against CYPES; assay type: in vivo, Cyperus esculentus; conditions: visual assessment about 3 weeks after treatment, 100% = plants have died, 0% = like control plants
Method: Seeds of monocotyledonous and dicotyledonous weed and crop plants are laid out in sandy loam soil in wood-fiber pots, covered with soil and cultivated in a greenhouse under good growth conditions. 2 to 3 weeks after sowing, the test plants are treated at the one-leaf stage. The compounds of the invention, formulated in the form of wettable powders (WP) or as emulsion concentrates (EC), are then sprayed onto the green parts of the plants in the form of an aqueous suspension or emulsion at a water application rate equivalent to 600 to 800 l/ha, with addition of 0.2% wetting agent. After the test plants have been left to stand in the greenhouse under optimal growth conditions for about 3 weeks, the action of the preparations is assessed visually in comparison to untreated controls (herbicidal action in percent (%): 100% activity=the plants have died, 0% activity=like control plants). […] The tables below illustrate, in an illustrative manner, the post-emergence herbicidal action of the compounds of the invention, the herbicidal activity being stated in percent.

harmful plants = assay: Comparative experiments: herbicidal pre-emergence action versus compounds known from D1 (WO 2012/028579 A1); assay type: in vivo; parameters: key to Herbicidal action against ALOMY / Herbicidal action against AVEFA / Herbicidal action against SETVI / Herbicidal action against AMARE / Herbicidal action against STEME / Herbicidal action against VIOTR / Herbicidal action against HORMU / Herbicidal action against MATIN / Herbicidal action against ABUTH: % herbicidal activity: 0 = like control, 100 = plants died
From the text: as §1, with “percent. In the experiments that follow, herbicidal action of numerous inventive compounds and the structurally closest compounds known from D1 (WO 2012/028579 A1) were compared under the above-specified conditions by the pre-emergence and post-emergence method. The example numbers given in the tables relate to the compounds disclosed in the respective documents.” for “percent.”

| SMILES | pest or weed control at 80 g/ha (CYPES [1]) [%] | pest or weed control at 320 g/ha (CYPES [1]) [%] | pest or weed control at 20 g/ha (AVEFA) [%] | pest or weed control at 80 g/ha (AVEFA) [%] | pest or weed control at 80 g/ha (PHBPU [2]) [%] | pest or weed control at 320 g/ha (PHBPU [2]) [%] | pest or weed control at 20 g/ha (PHBPU [3]) [%] | pest or weed control at 80 g/ha (PHBPU [3]) [%] | pest or weed control at 20 g/ha (MATIN [4]) [%] | pest or weed control at 80 g/ha (MATIN [4]) [%] | pest or weed control at 320 g/ha (MATIN [4]) [%] | pest or weed control at 20 g/ha (STEME) [%] | pest or weed control at 80 g/ha (STEME) [%] | pest or weed control at 5 g/ha (STEME) [%] | pest or weed control at 5 g/ha (MATIN [5]) [%] | pest or weed control at 20 g/ha (MATIN [5]) [%] | pest or weed control at 80 g/ha (MATIN [5]) [%] | Post-emergence action at 80 g/ha against CYPES in % (CYPES [6]) [%] | pest or weed control at 20 g/ha (CYPES [1]) [%] | further results |
| --- | --- | --- | --- | --- | --- | --- | --- | --- | --- | --- | --- | --- | --- | --- | --- | --- | --- | --- | --- | --- |
| CCCn1nnnc1NC(=O)c1ccc(C(F)(F)F)c(C(=O)NC)c1Cl [Example 3-129] | 100 | 100 | 100 | 100 | 90 | 100 | 90 | 100 | 90 | 100 | 100 | 100 | 100 | 100 | 100 | 100 | 100 |  |  | pest or weed control at 20 g/ha (PHBPU [2]; dosage 20 g/ha): 80% |
| Cn1nnnc1NC(=O)c1ccc(C(F)(F)F)c(C(N)=O)c1Cl [Example 1-338] | 90 | 100 | 80 | 100 |  | 80 |  | 90 |  | 80 | 100 |  | 90 |  |  |  |  | 90 |  | Post-emergence action at 20 g/ha against CYPES in % (CYPES [6]; 20 g/ha): 80% |
| CNC(=O)c1c(C(F)(F)F)ccc(C(=O)Nc2nnc(C)o2)c1Cl [Example 6-116] | 100 | 100 | 100 | 100 |  | 80 | 80 | 90 | 90 | 90 | 100 | 100 | 100 | 90 | 80 | 90 | 100 |  | 100 | pest or weed control at 5 g/ha (AVEFA): 100%; pest or weed control at 5 g/ha (PHBPU [3]): 80% |
| CCCn1nnnc1NC(=O)c1ccc(C(F)(F)F)c(C(N)=O)c1Cl [Example 3-338] | 90 | 90 |  | 100 |  | 100 | 80 | 90 |  | 90 | 100 | 100 | 100 | 80 |  |  | 80 |  |  |  |
| CCn1nnnc1NC(=O)c1ccc(C(F)(F)F)c(C(=O)NC)c1Cl [Example 2-129] | 100 | 100 | 100 | 100 | 90 | 100 | 100 | 100 | 100 | 100 | 100 | 100 | 100 | 100 | 80 | 100 | 100 | 90 | 100 | Herbicidal action against ABUTH (harmful plants; 20 g a.i./ha): 100; Herbicidal action against AVEFA (harmful plants; 20 g a.i./ha): 100; Herbicidal action against MATIN (harmful plants; 20 g a.i./ha): 100; Herbicidal action against POLCO (harmful plants; 20 g a.i./ha, POLCO): 100; Herbicidal action against SETVI (harmful plants; 20 g a.i./ha, SETVI): 100; Herbicidal action against VIOTR (harmful plants; 20 g a.i./ha): 100; pest or weed control at 5 g/ha (AVEFA): 100% |
| CNC(=O)c1c(C(F)(F)F)ccc(C(=O)Nc2nnnn2C)c1Cl [Example 1-129] | 90 | 100 | 100 | 100 | 90 | 100 | 100 | 100 | 100 | 100 | 100 | 100 | 100 | 100 |  | 90 | 100 | 80 | 90 | Herbicidal action against ABUTH (harmful plants; 20 g a.i./ha): 100; Herbicidal action against AMARE (harmful plants; 20 g a.i./ha, AMARE): 100; Herbicidal action against AVEFA (harmful plants; 20 g a.i./ha): 100; Herbicidal action against MATIN (harmful plants; 20 g a.i./ha): 100; Herbicidal action against STEME (harmful plants; 20 g a.i./ha): 100; Herbicidal action against VIOTR (harmful plants; 20 g a.i./ha): 100; Herbicidal action against ABUTH (harmful plants; 80 g a.i./ha): 100; Herbicidal action against ALOMY (harmful plants; 80 g a.i./ha, ALOMY): 100; Herbicidal action against AVEFA (harmful plants; 80 g a.i./ha): 100; Herbicidal action against MATIN (harmful plants; 80 g a.i./ha): 100; Herbicidal action against STEME (harmful plants; 80 g a.i./ha): 100; Herbicidal action against VIOTR (harmful plants; 80 g a.i./ha): 100; pest or weed control at 5 g/ha (PHBPU [3]): 80% |
| CCn1nnnc1NC(=O)c1ccc(C(F)(F)F)c(C(N)=O)c1Cl [Example 2-338] | 90 | 100 | 80 | 100 |  | 80 |  | 90 |  | 90 | 100 | 90 | 100 |  |  |  |  |  |  |  |
